Experimental data: patent publication US8624037B2, “Imidazolidine-2,4-dione derivatives and use thereof as a medicament” (Ipsen Pharma S.A.S., priority 2009, dated 2014)

Tests used:
[1] = system: LNCaP cells; settings: medium depleted in steroids; stated 'as described previously' (Veldscholte 1992); cited from earlier work
[2] = biological target: T1, androgen receptor (Homo sapiens, UniProt P10275, T878A); assay type: cell-based; settings: LNCaP cells, 72 hours after treatment, western blot, FIGS. 2 to 10
T1 construct: primary antibody directed against the androgen receptor (AR441, sc-7305, Santa Cruz); host or cells: LNCaP
T1 sequence (P10275 whole entry T878A): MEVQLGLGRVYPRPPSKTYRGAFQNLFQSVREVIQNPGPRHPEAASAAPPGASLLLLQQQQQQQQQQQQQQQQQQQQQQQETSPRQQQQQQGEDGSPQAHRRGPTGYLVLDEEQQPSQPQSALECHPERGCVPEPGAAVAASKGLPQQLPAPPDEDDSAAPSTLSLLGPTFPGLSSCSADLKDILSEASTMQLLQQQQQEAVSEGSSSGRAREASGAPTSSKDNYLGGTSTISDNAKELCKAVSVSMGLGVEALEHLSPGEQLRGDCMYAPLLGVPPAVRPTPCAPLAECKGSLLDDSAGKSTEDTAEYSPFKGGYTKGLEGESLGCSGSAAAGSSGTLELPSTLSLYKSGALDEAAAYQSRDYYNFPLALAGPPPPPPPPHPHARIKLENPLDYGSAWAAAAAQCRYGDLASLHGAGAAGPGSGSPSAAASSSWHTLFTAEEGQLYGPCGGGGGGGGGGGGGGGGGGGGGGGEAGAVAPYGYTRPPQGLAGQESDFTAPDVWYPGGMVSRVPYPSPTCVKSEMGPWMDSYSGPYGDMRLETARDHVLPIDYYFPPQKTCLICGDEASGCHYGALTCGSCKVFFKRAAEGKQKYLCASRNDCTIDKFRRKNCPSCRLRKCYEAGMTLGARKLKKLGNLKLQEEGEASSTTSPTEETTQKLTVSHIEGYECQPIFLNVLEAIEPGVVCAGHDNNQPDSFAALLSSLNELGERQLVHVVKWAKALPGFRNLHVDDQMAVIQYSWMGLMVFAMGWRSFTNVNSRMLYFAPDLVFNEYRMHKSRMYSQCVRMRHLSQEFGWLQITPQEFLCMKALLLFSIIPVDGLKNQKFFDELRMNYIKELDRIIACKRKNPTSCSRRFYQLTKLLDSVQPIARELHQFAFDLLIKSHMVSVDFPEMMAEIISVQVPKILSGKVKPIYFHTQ
Protocol: The cells of the LNCaP line are seeded at a rate of 2.5 millions of cells per 10 cm Petri dish in RPMI, 10% of foetal calf serum, 2 mM of glutamine, 100 U/ml of penicillin, 0.1 mg/ml of streptomycin and 0.01M HEPES, 1 mM of sodium pyruvate, […]. 4 days later, the cells are treated with the compound to be tested. 72 hours after the treatment the cells are lyzed in lysis buffer (50 mM Tris pH 7.4, 150 mM NaCl, 1 mM EDTA, 20 mM NaF, 100 mM Na2VO3, 0.5% of NP40, 1% of Triton X-100, 1 mM EGTA, Pefabloc, protease inhibitor cocktail 11836170001 RocheDiagnostics, Phosphatase inhibitor cocktail set II Calbiochem). The cells are then scrapped and the lysate transferred into QIAshredder tubes (cat No. 79656 Qiagen) for centrifugation at 13,000 rpm for 15 min at 4° C. The supernatant is transferred into QIAshredder tubes for a second centrifugation at 13,000 rpm for 5 min in order to completely eliminate the DNA filaments. The protein concentration is then determined (Bio-Rad DC protein assay kit) and adjusted so as to load the same quantity of proteins per well (10 and 20 per well depending on the experiments). The loading buffer (sample loading buffer 3×ref 7722 Cell signaling technology) with added 1% beta-mercaptoethanol and 50 mM DTT, is added to the samples which are then heated for 10 min at 90° C. The samples are deposited under a volume of 20 μl on NuPAGE 4-12% Bis-Tris gels (cat No. NP0322BOX, Invitrogen). The migration takes place in MOPS buffer (Invitrogen) and is carried out for 1 hour at 180V. The proteins are transferred onto a nitrocellulose membrane (Hybond ECL RPN78D, GE Healthcare) under semi-dry conditions, in the presence of transfer buffer (NP0006-1, Invitrogen) over 45 min at 15V. The membrane is then blocked for 1 hour in blocking buffer (Non-fat dry milk, cat 170-6404, Biorad) at 5% in Tris Buffer saline (TBS) 0.1% Tween 20. Then it is incubated at 4° C. overnight in the presence of primary antibody directed against the androgen receptor (AR441, sc-7305, Santa Cruz) diluted to 1/2000th in blocking buffer as well as in the presence of primary antibody directed against GAPDH (Cat.MAB374, Millipore) diluted to 1/20,000th in blocking buffer (monitoring of protein load). The membrane is then washed 3 times in washing buffer (TBS, 0.1% Tween 20). The membrane is then incubated in the presence of secondary anti-immunoglobulin mouse antibody coupled with HRP (Goat anti-mouse IgG-HRP, sc 2031, Santa Cruz) diluted to 1/5000th in blocking buffer. The membrane is then washed 3 times in washing buffer.

[3] = system: LNCaP cells; assay: Anti-proliferative activity on LNCaP in complete medium (WST-1); assay type: cell-based; settings: Homo sapiens, 144 h, 144 h incubation, WST-1 reading, read-out: IC50 on the LNCaP cells in culture (concentration inhibiting the cell proliferation by 50%)
Protocol: 1. Anti-Proliferative Activity on LNCaP in Complete Medium
The anti-proliferative activity of the compounds of the present invention is determined on LNCaP in complete medium by applying the following experimental procedure:
The LNCaP cell type (ATCC, 1740) originates from a prostate carcinoma expressing the androgen receptor, this line is hormone-dependent.
Maintenance of the LNCaP line is carried out in complete culture medium: RPMI, 10% of foetal calf serum, 2 mM glutamine, 100 U/ml penicillin, 0.1 mg/ml of streptomycin and 0.01M HEPES, 1 mM sodium pyruvate, 40% of D-glucose. • Seeding the plates:
The LNCaP line is seeded at 20,000 cells/well in […] of complete medium in 96-well plates coated with poly-D-lysine (Biocoat, Costar). • Treatment of the cells: 24 h after the seeding, the cells are treated with 10 μl/well of compound diluted in the culture medium. The concentrations used are the following: 1 nM/10/30/100/300/1000/3000/10,000/100,000 nM. The cells are incubated for 144 h at 37° C., 5% CO2. • Reading: After incubation for 6 days, 10 μL of the “WST-1 cell proliferation” reagent (Roche ref 1644807) is added to each well. After incubation for 2 hours at 37° C., 5% CO2, the absorbance at 450 nm is measured by spectrophotometry (Envision, Perkin Elmer). • Results: The experiments are carried out in duplicate and the best compounds are tested twice. A concentration value inhibiting the cell proliferation by 50% (IC50) is calculated.

[4] = system: LNCaP cells; assay: Pro- and/or anti-proliferative activity on LNCaP in medium depleted in steroids (WST-1); assay type: cell-based; settings: FIG. 1
Protocol: 2. Antiproliferative Activity on LNCaP in a Medium Depleted in Steroids:
The pro- and/or anti-proliferative activity of the compounds of the present invention is determined on LNCaP in medium depleted in steroids.
The LNCaP (ATCC, 1740) line originates from a carcinoma of the prostate expressing the androgen receptor, it is hormone-dependent.
The maintenance of the LNCaP line is carried out under the usual conditions in RPMI, 10% of foetal calf serum, 2 mM of glutamine, 100 U/ml of penicillin, 0.1 mg/ml of streptomycin and 0.01M HEPES, 1 mM sodium pyruvate, 40% of D-glucose.
For the study under conditions without steroids, 24 hours before the seeding the culture medium of the cells is eliminated. […]
The LNCaP line is seeded at 20,000 cells/well in 90 μl of RPMI medium with 10% foetal calf serum depleted in steroids in 96-well plates coated with poly-D-lysine (Biocoat, Costar). • Treatment of the cells: 24 h after seeding, the cells are treated with 10 μl/well of compound diluted in the culture medium. […] The cells are incubated for 144 h at 37° C., 5% CO2. • Reading: After incubation for 6 days, 10 μL of cell proliferation reagent WST-1 (Roche ref 1644807) is added to each well. […]

CC1(C)NC(=O)N(c2ccc([N+](=O)[O-])c(C(F)(F)F)c2)C1=O [nilutamide]
agonist / inhibitory activity of nilutamide on LNCaP proliferation [1]: agonist activity at low concentrations, then an inhibitory activity at high concentrations

Cc1cc(N2C(=O)N(CCCCCN3C(=O)N(c4ccc([N+](=O)[O-])c(C)c4)C(=O)C3(C)C)C(C)(C)C2=O)ccc1[N+](=O)[O-] [Example 10, 1,1′-pentane-1,5-diylbis[5,5-dimethyl-3-(3-methyl-4-nitrophenyl)imidazolidine-2,4-dione]]
effect on protein expression of the androgen receptor [2]: reduce protein expression of the androgen receptor
IC50 [3]: < 1.5 µM

CC1(C)C(=O)N(c2ccc([N+](=O)[O-])c(C(F)(F)F)c2)C(=O)N1CCCCCCCN1C(=O)N(c2ccc([N+](=O)[O-])c(C(F)(F)F)c2)C(=O)C1(C)C [Example 4, 1,1′-heptane-1,7-diylbis{5,5-dimethyl-3-[4-nitro-3-(trifluoromethyl)phenyl]imidazolidine-2,4-dione}]
IC50 [3]: < 1.5 µM

CC1(C)C(=O)N(c2ccc(C#N)c(Cl)c2)C(=O)N1CCCCCN1C(=O)N(c2ccc(C#N)c(Cl)c2)C(=O)C1(C)C [Example 16, 4,4′-[pentane-1,5-diylbis(4,4-dimethyl-2,5-dioxoimidazolidine-3,1-diyl)]bis(2-chlorobenzonitrile)]
effect on protein expression of the androgen receptor [2]: reduce protein expression of the androgen receptor
IC50 [3]: < 1.5 µM

COc1cc(N2C(=O)N(CCCCCN3C(=O)N(c4ccc([N+](=O)[O-])c(OC)c4)C(=O)C3(C)C)C(C)(C)C2=O)ccc1[N+](=O)[O-] [Example 13, 1,1′-pentane-1,5-diylbis[3-(3-methoxy-4-nitrophenyl)-5,5-dimethyl-imidazolidine-2,4-dione]]
IC50 [3]: < 1.5 µM

CC1(C)C(=O)N(c2ccc(C#N)c(C(F)(F)F)c2)C(=O)N1C[C@@H]1O[C@@H]1CN1C(=O)N(c2ccc(C#N)c(C(F)(F)F)c2)C(=O)C1(C)C [Example 22, 4,4′-{(2R,3S)-oxirane-2,3-diylbis[methanediyl(4,4-dimethyl-2,5-dioxoimidazolidine-3,1-diyl)]}bis[2-(trifluoromethyl)benzonitrile]]
effect on protein expression of the androgen receptor [2]: reduce protein expression of the androgen receptor

CC1(C)C(=O)N(c2ccc(C#N)c(C(F)(F)F)c2)C(=O)N1C/C=C\CN1C(=O)N(c2ccc(C#N)c(C(F)(F)F)c2)C(=O)C1(C)C [Example 21, 4,4′-[(2Z)-but-2-ene-1,4-diylbis(4,4-dimethyl-2,5-dioxoimidazolidine-3,1-diyl)]bis[2-(trifluoromethyl)benzonitrile]]
effect on protein expression of the androgen receptor [2]: reduce protein expression of the androgen receptor

CC1(C)C(=O)N(c2ccc([N+](=O)[O-])c(C(F)(F)F)c2)C(=O)N1C/C=C\CN1C(=O)N(c2ccc([N+](=O)[O-])c(C(F)(F)F)c2)C(=O)C1(C)C [Example 19, 1,1′-(2Z)-but-2-ene-1,4-diylbis{5,5-dimethyl-3-[4-nitro-3-(trifluoromethyl)phenyl]imidazolidine-2,4-dione}]
effect on protein expression of the androgen receptor [2]: reduce protein expression of the androgen receptor
inhibitory activity on cell proliferation of LNCaP cultured in medium depleted in steroids [4]: visible inhibitory activity at low concentrations

CC1(C)C(=O)N(c2ccc([N+](=O)[O-])c(C(F)(F)F)c2)C(=O)N1CCOCCN1C(=O)N(c2ccc([N+](=O)[O-])c(C(F)(F)F)c2)C(=O)C1(C)C [Example 7, 1,1′-(oxydiethane-2,1-diyl)bis{5,5-dimethyl-3-[4-nitro-3-(trifluoromethyl)-phenyl]imidazolidine-2,4-dione}]
effect on protein expression of the androgen receptor [2]: reduce protein expression of the androgen receptor

Cc1cc(N2C(=O)N(CCCCCN3C(=O)N(c4ccc(C#N)c(C)c4)C(=O)C3(C)C)C(C)(C)C2=O)ccc1C#N [Example 15, 4,4′-[pentane-1,5-diylbis(4,4-dimethyl-2,5-dioxoimidazolidine-3,1-diyl)]bis(2-methylbenzonitrile)]
effect on protein expression of the androgen receptor [2]: reduce protein expression of the androgen receptor

CC1(C)C(=O)N(c2ccc([N+](=O)[O-])c(C(F)(F)F)c2)C(=O)N1CCCCCN1C(=O)N(c2ccc([N+](=O)[O-])c(C(F)(F)F)c2)C(=O)C1(C)C [Example 2, 1,1′-pentane-1,5-diylbis{5,5-dimethyl-3-[4-nitro-3-(trifluoromethyl)phenyl]imidazolidine-2,4-dione}]
effect on protein expression of the androgen receptor [2]: reduce protein expression of the androgen receptor
inhibitory activity on cell proliferation of LNCaP cultured in medium depleted in steroids [4]: visible inhibitory activity at low concentrations

COC(=O)Nc1ccc(N2C(=O)N(CCCCCN3C(=O)N(c4ccc(NC(=O)OC)c(C)c4)C(=O)C3(C)C)C(C)(C)C2=O)cc1C [Example 14, dimethyl{pentane-1,5-diylbis[(4,4-dimethyl-2,5-dioxoimidazolidine-3,1-diyl)(2-methyl-4,1-phenylene)]}biscarbamate]
IC50 [3]: < 1.5 µM
